Source: ChEMBL document CHEMBL5226326, “Discovery of 1-Benzoyl 4-Phenoxypiperidines as Small-Molecule Inhibitors of the β-Catenin/B-Cell Lymphoma 9 Protein-Protein Interaction” (J Med Chem, 2021)

Columns and labels:
[1] = target: T1, Catenin beta-1/Cadherin-1 (Homo sapiens, UniProt P35222); assay: Inhibition of full length beta-catenin (1 to 686 residues) (unknown origin) expressed in Escherichia coli BL21 (DE3)/N-terminal biotinylated human E-cadherin (824 to 877 residues) protein-protein interaction incubated for 2 hr by Alphascreen assay
T1 sequence (P35222 whole entry): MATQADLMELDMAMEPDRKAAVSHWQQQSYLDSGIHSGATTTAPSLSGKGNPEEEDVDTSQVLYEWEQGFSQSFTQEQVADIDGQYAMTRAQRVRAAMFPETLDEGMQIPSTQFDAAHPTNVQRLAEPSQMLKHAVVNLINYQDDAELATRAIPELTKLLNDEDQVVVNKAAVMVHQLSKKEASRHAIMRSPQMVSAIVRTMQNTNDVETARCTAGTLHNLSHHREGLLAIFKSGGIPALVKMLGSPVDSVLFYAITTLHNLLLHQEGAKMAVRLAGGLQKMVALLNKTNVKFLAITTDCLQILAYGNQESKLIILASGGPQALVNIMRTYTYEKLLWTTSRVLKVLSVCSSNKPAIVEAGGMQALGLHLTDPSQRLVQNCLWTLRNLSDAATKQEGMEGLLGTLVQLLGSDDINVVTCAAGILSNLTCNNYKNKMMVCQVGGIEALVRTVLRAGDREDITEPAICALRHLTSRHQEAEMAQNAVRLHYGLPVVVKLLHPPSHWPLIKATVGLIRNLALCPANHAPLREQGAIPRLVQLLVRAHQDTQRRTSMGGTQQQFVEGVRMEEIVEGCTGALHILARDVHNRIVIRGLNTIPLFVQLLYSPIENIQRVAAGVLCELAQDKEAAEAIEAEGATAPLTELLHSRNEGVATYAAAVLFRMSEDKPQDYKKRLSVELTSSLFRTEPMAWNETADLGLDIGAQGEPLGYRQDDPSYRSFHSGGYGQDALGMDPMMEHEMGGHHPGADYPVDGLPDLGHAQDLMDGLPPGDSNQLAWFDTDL
T1 sequence (P12830 whole entry): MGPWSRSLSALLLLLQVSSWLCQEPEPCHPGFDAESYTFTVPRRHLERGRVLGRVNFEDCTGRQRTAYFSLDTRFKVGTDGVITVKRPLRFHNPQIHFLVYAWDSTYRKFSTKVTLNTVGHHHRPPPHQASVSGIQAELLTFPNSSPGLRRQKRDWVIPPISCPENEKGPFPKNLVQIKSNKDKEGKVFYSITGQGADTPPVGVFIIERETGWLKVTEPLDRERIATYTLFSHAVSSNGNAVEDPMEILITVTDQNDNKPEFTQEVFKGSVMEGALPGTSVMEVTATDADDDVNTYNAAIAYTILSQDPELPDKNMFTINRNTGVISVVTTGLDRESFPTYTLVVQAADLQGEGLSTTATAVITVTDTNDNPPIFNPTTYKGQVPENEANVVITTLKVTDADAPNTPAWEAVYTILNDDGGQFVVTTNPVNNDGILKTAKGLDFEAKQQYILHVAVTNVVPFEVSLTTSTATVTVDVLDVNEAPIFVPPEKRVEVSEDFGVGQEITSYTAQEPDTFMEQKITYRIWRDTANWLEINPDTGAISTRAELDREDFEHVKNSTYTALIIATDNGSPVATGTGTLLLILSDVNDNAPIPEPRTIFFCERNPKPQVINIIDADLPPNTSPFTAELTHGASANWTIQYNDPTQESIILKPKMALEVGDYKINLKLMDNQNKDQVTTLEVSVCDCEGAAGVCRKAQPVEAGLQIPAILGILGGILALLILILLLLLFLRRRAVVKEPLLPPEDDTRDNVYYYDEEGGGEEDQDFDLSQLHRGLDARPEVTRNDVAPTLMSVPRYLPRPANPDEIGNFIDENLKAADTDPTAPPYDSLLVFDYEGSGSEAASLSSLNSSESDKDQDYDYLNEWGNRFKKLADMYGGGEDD

[2] = Inhibition of Wnt/beta-catenin transactivation signalling in human HEK293 cells transfected with TOPFlash reporter gene incubated for 24 hrs by TOPFlash luciferase assay; type: cell-based; conditions: HEK293, 24 h
[3] = Drug uptake in human MDA-MB-231 cells at 2 uM incubated at 37 degree C measured after 6 hrs by HPLC analysis; type: ADME, cell-based; conditions: mda-mb-231, 6 h
[4] = Inhibition of full length beta-catenin E155A mutant/N-terminal biotinylated human BCL9 HD2 (350 to 375 residues) protein-protein interaction in human SW480 cells incubated for 1 hr by Alphascreen assay; type: cell-based
[5] = target: T1, Catenin beta-1/Cadherin-1; assay: Inhibition of full length beta-catenin (1 to 686 residues) (unknown origin) expressed in Escherichia coli BL21 (DE3)/N-terminal biotinylated human E-cadherin (824 to 877 residues) protein-protein interaction assessed as inhibition constant incubated for 2 hr by Alphascreen assay
MDA-MB-231 = assay: Antiproliferative activity against beta-catenin signalling overexpressing human MDA-MB-231 cells assessed as reduction in cell growth incubated for 72 hrs by MTS assay; type: functional, cell-based; conditions: MDA-MB-231, 72 h

Which Kd [1] does the source give for `CC(C)(C)C1CCC(c2cc(C(=O)N3CCC(Oc4cc(N5CCNCC5)ccc4C#N)CC3)ccc2O[C@H]2CCNC2)CC1.Cl.Cl` (mixture of isomers; cis) here?
The Kd was 80 µM.

And the IC50 [2]?
The IC50 was 5.7 µM.

And the Drug uptake [3]?
Its Drug uptake is 88 µM.

What about the Ki [4] of the same compound?
Its Ki is 3.6 µM.

And the Ki [5]?
The Ki was 19 µM.

And the IC50 (MDA-MB-231)?
The IC50 was 4.1 µM.
